The numbers were not newly measured in paper PMC10140125 (Investigational New Drugs, 2023), which cites them from elsewhere.

In this data set the test system is recurrent malignant gliomas. Also on record: method as in PMID 20458050, PMID 20200024. As to conditions: phase II studies, recurrent malignant gliomas ref 4, 22.

The structures appear in SMILES notation.

Turning to `Cc1ccc(Nc2nccc(N(C)c3ccc4c(C)n(C)nc4c3)n2)cc1S(N)(=O)=O` [pazopanib], the ORR is 5.9%. For `COc1cc2c(Oc3ccc4[nH]c(C)cc4c3F)ncnc2cc1OCCCN1CCCC1` [cediranib], the ORR is 56.7%.
